Laboratory results taken from ChEMBL document CHEMBL1150258, “Predicting binding modes from free energy calculations” (J Med Chem, 2008).

biological target: Human immunodeficiency virus type 1 reverse transcriptase (Human immunodeficiency virus 1, UniProt Q72547); test: Inhibition of HIV1 reverse transcriptase in […]; format: cell-based

SMILES | IC50 [nM]
CCC(=O)Nc1c(Cc2cc(C)cc(C)c2)c(CC)c(C)[nH]c1=O | 3980
CCc1c(C)[nH]c(=O)c(NC(C)=O)c1Cc1cc(C)cc(C)c1 | 398
CCNc1c(Cc2cc(C)cc(C)c2)c(CC)c(C)[nH]c1=O | 16
CCCN(C)c1c(Cc2cc(C)cc(C)c2)c(CC)c(C)[nH]c1=O | 16
CCOCCN(C)c1c(Cc2cccc(C)c2)c(CC)c(C)[nH]c1=O | 13
CCc1c(C)[nH]c(=O)c(N(CC)CC)c1Cc1cc(C)cc(C)c1 | 16
CCc1c(C)[nH]c(=O)c(N2CCCCC2)c1Cc1cc(C)cc(C)c1 | 631
CCc1c(C)[nH]c(=O)c(N(C)CCCO)c1Cc1cccc(C)c1 | 3
CCc1c(C)[nH]c(=O)c(N(C)CCO)c1Cc1cccc(C)c1 | 5
CCCCNc1c(Cc2cc(C)cc(C)c2)c(CC)c(C)[nH]c1=O | 126
CCc1c(C)[nH]c(=O)c(N(C)CCCCCO)c1Cc1cc(C)cc(C)c1 | 4
CCc1c(C)[nH]c(=O)c(NC(=S)Nc2ccccc2)c1Cc1cccc(C)c1 | 3160
CCc1c(C)[nH]c(=O)c(N(C)CCOC)c1Cc1cccc(C)c1 | 1
CCc1c(C)[nH]c(=O)c(NCc2ccccc2)c1Cc1cc(C)cc(C)c1 | 251
CCc1c(C)[nH]c(=O)c(N(C)CC)c1Cc1cc(C)cc(C)c1 | 8
CCc1c(C)[nH]c(=O)c(N(C)CC)c1Cc1cccc(/C=C/C#N)c1 | 1
CCc1c(C)[nH]c(=O)c(N(C)C(C)COC)c1Cc1cc(C)cc(C)c1 (centres undefined) | 6

SMILES | IC50 [nM]
CCc1c(C)[nH]c(=O)c(N(C)CCCC#N)c1Cc1cccc(C)c1 | 5
CCNC(=S)Nc1c(Cc2cccc(C)c2)c(CC)c(C)[nH]c1=O | 25100
CCc1c(C)[nH]c(=O)c(N2CCOCC2)c1Cc1cc(C)cc(C)c1 | 158
CCc1c(C)[nH]c(=O)c(N(C)CCCSC)c1Cc1cc(C)cc(C)c1 | 25
CCCCN(CCCC)c1c(Cc2cc(C)cc(C)c2)c(CC)c(C)[nH]c1=O | 50100
CCc1c(C)[nH]c(=O)c(N(C)CC#N)c1Cc1cccc(C)c1 | 4
CCc1c(C)[nH]c(=O)c(NC=O)c1Cc1cc(C)cc(C)c1 | 79
CCc1c(C)[nH]c(=O)c(NC)c1Cc1cc(C)cc(C)c1 | 10
CCc1c(C)[nH]c(=O)c(-n2cccc2)c1Cc1cc(C)cc(C)c1 | 12.6
CCc1c(C)[nH]c(=O)c(N(Cc2ccccc2)Cc2ccccc2)c1Cc1cc(C)cc(C)c1 | 100000
CCc1c(C)[nH]c(=O)c(N(C)CCCCCO)c1Cc1cccc(C)c1 | 10
CCc1c(C)[nH]c(=O)c(N(C)CCOC)c1Cc1cc(C)cc(C)c1 | 2
CCc1c(C)[nH]c(=O)c(NC(N)=S)c1Cc1cccc(C)c1 | 316
CCc1c(C)[nH]c(=O)c(N(C)CCC#N)c1Cc1cccc(C)c1 | 16
CCCNc1c(Cc2cc(C)cc(C)c2)c(CC)c(C)[nH]c1=O | 20
CCc1c(C)[nH]c(=O)c(N(C)CCOC)c1Cc1cccc(/C=C/C#N)c1 | 1
CCCC(=O)Nc1c(Cc2cc(C)cc(C)c2)c(CC)c(C)[nH]c1=O | 100000
